{"source": "patent US9637470B2", "about": "“Treatment for substance use disorders and stress disorders” (Baylor College of Medicine, priority 2013, dated 2017)", "key": {"[1]": {"target": "recombinant human serotonin transporter protein (SERT) (Homo sapiens, UniProt P31645)", "sequence (P31645 whole entry)": "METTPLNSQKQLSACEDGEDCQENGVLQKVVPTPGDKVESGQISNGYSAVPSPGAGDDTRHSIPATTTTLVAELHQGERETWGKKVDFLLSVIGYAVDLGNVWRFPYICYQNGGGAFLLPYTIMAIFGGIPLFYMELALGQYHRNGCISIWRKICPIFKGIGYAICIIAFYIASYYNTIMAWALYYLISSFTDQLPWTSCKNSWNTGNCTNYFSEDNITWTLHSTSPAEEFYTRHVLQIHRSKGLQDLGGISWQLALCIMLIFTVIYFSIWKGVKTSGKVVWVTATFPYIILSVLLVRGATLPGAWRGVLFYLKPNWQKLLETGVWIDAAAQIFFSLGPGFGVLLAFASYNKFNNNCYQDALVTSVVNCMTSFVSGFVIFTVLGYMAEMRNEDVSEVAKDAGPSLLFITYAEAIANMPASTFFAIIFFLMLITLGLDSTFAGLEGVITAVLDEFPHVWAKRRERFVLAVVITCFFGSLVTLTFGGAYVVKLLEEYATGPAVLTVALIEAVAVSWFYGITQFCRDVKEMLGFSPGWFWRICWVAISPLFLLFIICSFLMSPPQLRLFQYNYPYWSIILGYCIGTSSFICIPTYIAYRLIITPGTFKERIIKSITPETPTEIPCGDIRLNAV", "assay": "IC50 binding profile, competitive inhibition assay, SERT", "protocol": "(§1) Amitifadine and DOV 102,677 are enantiomers and differ only in the stereochemistry of the cyclopropyl pyrrolidine carbon to which the dichlorophenyl group is bonded. In addition to the structural differences, the compounds differ greatly in their IC50 binding profiles at the three corresponding monoamine transporter proteins. The IC50 binding profiles were measured for each of the compounds in Table 5 by competitive inhibition assays using recombinant human serotonin transporter protein, recombinant human norepinephrine transporter protein, and recombinant human dopamine transporter protein Compounds were screened at a range of concentrations and were fit to a curve to determine IC50 values, the concentration at which 50% inhibition occurs."}, "[2]": {"target": "recombinant human norepinephrine transporter protein (NET) (Homo sapiens, UniProt P23975)", "sequence (P23975 whole entry)": "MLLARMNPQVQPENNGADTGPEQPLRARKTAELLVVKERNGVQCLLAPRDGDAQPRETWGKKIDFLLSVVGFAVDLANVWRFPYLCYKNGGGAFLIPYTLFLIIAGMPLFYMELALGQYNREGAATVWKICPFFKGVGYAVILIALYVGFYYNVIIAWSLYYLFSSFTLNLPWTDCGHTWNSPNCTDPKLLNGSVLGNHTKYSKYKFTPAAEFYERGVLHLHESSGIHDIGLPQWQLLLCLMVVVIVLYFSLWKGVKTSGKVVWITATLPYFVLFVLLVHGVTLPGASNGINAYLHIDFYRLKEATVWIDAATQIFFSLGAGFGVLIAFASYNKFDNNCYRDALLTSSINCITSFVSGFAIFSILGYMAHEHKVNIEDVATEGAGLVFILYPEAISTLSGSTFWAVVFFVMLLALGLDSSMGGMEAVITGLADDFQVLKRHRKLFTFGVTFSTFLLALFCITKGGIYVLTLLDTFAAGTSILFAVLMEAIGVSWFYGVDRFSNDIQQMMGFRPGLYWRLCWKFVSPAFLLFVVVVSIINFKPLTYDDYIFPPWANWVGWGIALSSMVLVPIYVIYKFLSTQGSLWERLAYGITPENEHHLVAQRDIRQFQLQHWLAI", "assay": "IC50 binding profile, competitive inhibition assay, NET", "protocol": "as §1"}, "[3]": {"target": "recombinant human dopamine transporter protein (DAT) (Homo sapiens, UniProt Q01959)", "sequence (Q01959 whole entry)": "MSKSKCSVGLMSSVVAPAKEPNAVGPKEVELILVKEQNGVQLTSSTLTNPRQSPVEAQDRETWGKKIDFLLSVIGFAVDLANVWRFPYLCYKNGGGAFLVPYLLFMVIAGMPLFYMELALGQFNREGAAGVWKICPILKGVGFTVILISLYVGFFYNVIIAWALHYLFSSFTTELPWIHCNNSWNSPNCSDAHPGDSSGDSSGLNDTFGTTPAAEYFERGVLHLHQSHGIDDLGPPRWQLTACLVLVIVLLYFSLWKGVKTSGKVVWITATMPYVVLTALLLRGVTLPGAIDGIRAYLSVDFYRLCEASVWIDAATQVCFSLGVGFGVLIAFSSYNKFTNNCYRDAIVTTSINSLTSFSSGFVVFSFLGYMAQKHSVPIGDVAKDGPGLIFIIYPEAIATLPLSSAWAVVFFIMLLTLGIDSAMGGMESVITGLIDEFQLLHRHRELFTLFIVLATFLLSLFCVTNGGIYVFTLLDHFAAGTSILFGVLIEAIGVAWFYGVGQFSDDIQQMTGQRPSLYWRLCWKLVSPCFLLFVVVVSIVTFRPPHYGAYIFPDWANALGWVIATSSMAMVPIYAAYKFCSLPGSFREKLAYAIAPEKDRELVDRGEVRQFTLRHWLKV", "assay": "IC50 binding profile, competitive inhibition assay, DAT", "protocol": "as §1"}, "σ1": {"target": "σ1 (Homo sapiens, UniProt Q99720)", "sequence (Q99720 whole entry)": "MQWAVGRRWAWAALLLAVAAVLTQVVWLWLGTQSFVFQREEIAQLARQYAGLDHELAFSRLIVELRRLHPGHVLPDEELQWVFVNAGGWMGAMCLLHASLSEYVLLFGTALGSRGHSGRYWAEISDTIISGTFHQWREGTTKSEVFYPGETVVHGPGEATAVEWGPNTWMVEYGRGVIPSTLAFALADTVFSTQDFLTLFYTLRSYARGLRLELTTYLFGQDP", "assay": "Receptor binding studies, sigma σ1", "conditions": "at 10 uM", "excerpt": "(§2) Binding at σ1 is not problematic, as SSRIs are known to have similar activities."}, "5-HT2B": {"target": "5-HT2B (Homo sapiens, UniProt P41595)", "sequence (P41595 whole entry, species assumed)": "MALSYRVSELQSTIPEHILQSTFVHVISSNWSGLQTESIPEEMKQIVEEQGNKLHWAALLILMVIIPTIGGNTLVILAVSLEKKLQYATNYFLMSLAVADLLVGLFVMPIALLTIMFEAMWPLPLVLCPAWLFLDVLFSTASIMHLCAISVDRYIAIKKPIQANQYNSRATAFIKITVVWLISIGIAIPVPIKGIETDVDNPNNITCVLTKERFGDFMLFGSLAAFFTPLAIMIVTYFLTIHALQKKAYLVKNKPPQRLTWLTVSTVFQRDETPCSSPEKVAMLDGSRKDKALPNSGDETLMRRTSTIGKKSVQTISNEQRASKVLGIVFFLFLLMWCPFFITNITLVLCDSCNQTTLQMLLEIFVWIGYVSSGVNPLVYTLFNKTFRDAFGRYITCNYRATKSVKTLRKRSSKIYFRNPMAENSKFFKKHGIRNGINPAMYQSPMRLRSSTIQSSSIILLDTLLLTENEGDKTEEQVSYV", "assay": "Receptor binding studies, 5-HT2B", "conditions": "at 10 uM", "excerpt": "as §2"}, "PK parameters in mouse": {"assay": "PK parameters in mouse", "conditions": "in vivo"}, "[4]": {"assay": "PK, distribution and excretion in rat", "assay_type": "in vivo", "conditions": "for half-life: in vivo"}, "PK parameters in dog": {"assay": "PK parameters in dog", "conditions": "in vivo"}, "CYP450 1A2": {"target": "CYP450 1A2 (Homo sapiens, UniProt P05177)", "sequence (P05177 whole entry)": "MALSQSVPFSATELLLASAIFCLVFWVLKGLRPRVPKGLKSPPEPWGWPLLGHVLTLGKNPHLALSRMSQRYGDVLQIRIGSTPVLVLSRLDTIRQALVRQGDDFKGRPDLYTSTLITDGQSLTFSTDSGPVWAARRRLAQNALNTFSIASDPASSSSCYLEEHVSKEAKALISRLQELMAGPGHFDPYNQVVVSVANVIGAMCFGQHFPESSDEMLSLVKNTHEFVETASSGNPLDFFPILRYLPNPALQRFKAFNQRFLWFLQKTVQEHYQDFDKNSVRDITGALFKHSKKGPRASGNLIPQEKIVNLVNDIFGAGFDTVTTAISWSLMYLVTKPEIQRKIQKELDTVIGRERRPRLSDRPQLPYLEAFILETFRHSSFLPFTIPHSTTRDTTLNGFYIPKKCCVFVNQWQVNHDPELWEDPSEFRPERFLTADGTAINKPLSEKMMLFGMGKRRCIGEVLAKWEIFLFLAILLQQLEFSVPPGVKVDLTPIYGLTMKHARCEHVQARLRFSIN", "assay": "CYP450 inhibition, 1A2", "assay_type": "in vitro ADME"}, "CYP450 2C19": {"target": "CYP450 2C19 (Homo sapiens, UniProt P33261)", "sequence (P33261 whole entry)": "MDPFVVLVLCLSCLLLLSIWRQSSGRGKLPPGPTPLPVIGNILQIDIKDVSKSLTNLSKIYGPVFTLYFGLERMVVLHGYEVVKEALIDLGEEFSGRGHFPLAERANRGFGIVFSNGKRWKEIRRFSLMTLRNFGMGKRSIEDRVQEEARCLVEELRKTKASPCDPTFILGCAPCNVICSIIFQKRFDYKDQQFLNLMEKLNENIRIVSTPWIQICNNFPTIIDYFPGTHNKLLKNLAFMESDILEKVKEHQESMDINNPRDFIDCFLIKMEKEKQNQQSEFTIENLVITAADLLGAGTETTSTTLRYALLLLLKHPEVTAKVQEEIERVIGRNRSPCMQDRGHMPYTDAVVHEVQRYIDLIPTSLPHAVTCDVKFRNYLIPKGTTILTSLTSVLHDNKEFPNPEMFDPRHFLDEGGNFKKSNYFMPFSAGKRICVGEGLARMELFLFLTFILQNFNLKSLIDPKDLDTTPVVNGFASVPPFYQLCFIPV", "assay": "CYP450 inhibition, 2C19", "assay_type": "in vitro ADME"}, "CYP450 3A4": {"target": "CYP450 3A4 (Homo sapiens, UniProt P08684)", "sequence (P08684 whole entry)": "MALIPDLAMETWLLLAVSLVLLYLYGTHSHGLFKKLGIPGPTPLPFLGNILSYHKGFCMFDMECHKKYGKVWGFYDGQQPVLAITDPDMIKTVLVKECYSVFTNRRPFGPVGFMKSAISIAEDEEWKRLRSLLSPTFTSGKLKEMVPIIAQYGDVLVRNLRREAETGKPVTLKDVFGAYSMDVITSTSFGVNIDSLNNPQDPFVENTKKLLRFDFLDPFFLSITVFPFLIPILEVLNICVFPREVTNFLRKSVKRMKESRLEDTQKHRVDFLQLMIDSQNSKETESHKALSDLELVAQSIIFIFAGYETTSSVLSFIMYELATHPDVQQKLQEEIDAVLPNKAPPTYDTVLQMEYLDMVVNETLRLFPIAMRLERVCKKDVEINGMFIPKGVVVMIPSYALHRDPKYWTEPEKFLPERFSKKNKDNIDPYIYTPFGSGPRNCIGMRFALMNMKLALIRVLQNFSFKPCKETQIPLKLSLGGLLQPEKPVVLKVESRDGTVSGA", "assay": "CYP450 inhibition, 3A4", "assay_type": "in vitro ADME"}, "CYP450 2D6": {"target": "CYP450 2D6 (Homo sapiens, UniProt P10635)", "sequence (P10635 whole entry)": "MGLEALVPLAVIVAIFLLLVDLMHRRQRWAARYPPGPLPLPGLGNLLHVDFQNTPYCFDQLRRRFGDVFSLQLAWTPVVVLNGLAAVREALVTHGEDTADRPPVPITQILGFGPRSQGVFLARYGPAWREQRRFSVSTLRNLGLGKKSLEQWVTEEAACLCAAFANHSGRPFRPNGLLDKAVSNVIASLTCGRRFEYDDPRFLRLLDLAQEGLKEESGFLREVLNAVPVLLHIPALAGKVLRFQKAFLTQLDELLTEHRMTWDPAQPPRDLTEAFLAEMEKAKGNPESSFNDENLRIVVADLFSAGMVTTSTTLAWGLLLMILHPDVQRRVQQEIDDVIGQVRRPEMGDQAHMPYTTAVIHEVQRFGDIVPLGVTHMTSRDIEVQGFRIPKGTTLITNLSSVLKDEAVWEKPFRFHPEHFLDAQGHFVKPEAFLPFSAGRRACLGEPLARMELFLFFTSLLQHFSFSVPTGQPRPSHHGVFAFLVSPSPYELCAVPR", "assay": "CYP450 inhibition, 2D6", "assay_type": "in vitro ADME", "conditions": "at 10 uM"}, "CYP 1A2": {"test_system": "CYP 1A2", "assay": "CYP induction, 1A2", "assay_type": "in vitro ADME"}, "CYP 2B6": {"test_system": "CYP 2B6", "assay": "CYP induction, 2B6", "assay_type": "in vitro ADME"}, "CYP 3A4": {"test_system": "CYP 3A4", "assay": "CYP induction, 3A4", "assay_type": "in vitro ADME"}, "AMES": {"test_system": "AMES", "assay": "Genotoxicity testing, AMES"}, "rats [5]": {"test_system": "rats", "assay": "Respiratory testing in rats", "assay_type": "in vivo, rat", "conditions": "up to 90 mg/kg"}, "healthy volunteers [6]": {"test_system": "healthy volunteers", "assay": "Single ascending dose study in healthy volunteers", "assay_type": "in vivo, human", "protocol": "A single ascending dose, double-blind, placebo controlled study enrolled 50 participants divided into 10 per dosing group. In each group of 10 volunteers, 7 received active medication and 3 received placebo. The doses tested were 10, 25, 75, 150, and 300 mg. […] Across most doses, the elimination half-life was […]."}, "[7]": {"assay": "Multiple ascending dose study in healthy volunteers", "assay_type": "in vivo, human", "conditions": "human, plasma, daily doses up to 11 days, for most doses, read-out: elimination half-life during chronic treatment (converted)", "protocol": "(§3) This double-blind, placebo controlled study enrolled 50 participants divided into 10 per dosing group. In each group of 10, 7 received active medication and 3 received placebo to maintain the blind. The doses tested were 25 mg BID, 75 mg QD, 50 mg BID, 75 mg BID, and 100 mg BID."}, "healthy volunteers [8]": {"test_system": "healthy volunteers", "assay": "Multiple ascending dose study in healthy volunteers", "assay_type": "in vivo, human", "conditions": "multiple dose", "protocol": "as §3"}, "[9]": {"assay": "Human pharmacokinetic studies", "conditions": "in vivo, read-out: elimination half-life (converted)", "protocol": "These studies will use double-blind, placebo-controlled experimental designs. Human pharmacokinetic studies indicate that EC2 has an elimination half-life of approximately 7 hours, allowing twice daily dosing."}, "dogs": {"test_system": "dogs", "assay": "Telemetry studies in dogs (ECG, QT)", "conditions": "doses up to 20 mg/kg"}, "rats [10]": {"test_system": "rats", "assay": "Self-administration in rats (abuse potential)", "conditions": "doses up to 10 mg/kg/infusion, cocaine positive control"}, "humans": {"test_system": "humans", "assay": "Positive subjective effects in humans (abuse potential)"}, "mouse lymphoma": {"test_system": "mouse lymphoma", "assay": "Genotoxicity testing, mouse lymphoma chromosome aberration"}, "locomotor activity": {"test_system": "locomotor activity", "assay": "Locomotor activity, screening test for stimulant-like effects", "conditions": "in vivo"}}, "note": "Entries after “also recorded” stand apart in the source; their conditions may differ.", "data": [{"smiles": "c1ccc2cc([C@H]([C@H]3CCCNC3)n3ncnn3)ccc2c1", "note": "[Example Compound 2, (3S)-3-[(S)-naphthalen-2-yl(2H-tetrazol-2-yl)methyl]piperidine]", "values": [{"measurement": "IC50", "setting": "[1]", "value": 20, "unit": "nM"}, {"measurement": "IC50", "setting": "[2]", "value": 10, "unit": "nM"}, {"measurement": "IC50", "setting": "[3]", "value": 11, "unit": "nM"}, {"measurement": "inhibition of binding at σ1", "setting": "σ1", "value": 74, "unit": "% inhibition"}, {"measurement": "inhibition of binding at 5-HT2B", "setting": "5-HT2B", "value": 56, "unit": "% inhibition"}, {"measurement": "half-life", "setting": "PK parameters in mouse", "value": 1.9, "unit": "h"}, {"measurement": "Kp", "setting": "[4]; brain, rat, after oral dosing, read-out: AUC ratio (brain/plasma)", "value": 0.45}, {"measurement": "accumulation in tissue", "setting": "[4]; rat, after oral administration", "value": "does not accumulate; also recorded: without significant accumulation"}, {"measurement": "tissue distribution", "setting": "[4]; rat, after oral administration", "value": "widely distributed across most tissues"}, {"measurement": "half-life", "setting": "[4]; rat, T1/2", "value": 3.7, "unit": "h"}, {"measurement": "half-life", "setting": "[4]; rat, po, elimination half-life in brain", "value": 12.6, "unit": "h"}, {"measurement": "half-life", "setting": "[4]; rat, po, elimination half-life in plasma", "value": 5, "unit": "h"}, {"measurement": "route of excretion", "setting": "[4]; rodents", "value": "mainly excreted in feces"}, {"measurement": "half-life", "setting": "PK parameters in dog", "value": 2, "unit": "h"}, {"measurement": "bioavailability", "setting": "PK parameters in dog; po, dogs", "value": 45, "unit": "%"}, {"measurement": "inhibition of CYP450 1A2", "setting": "CYP450 1A2", "value": "does not inhibit"}, {"measurement": "inhibition of CYP450 2C19", "setting": "CYP450 2C19", "value": "does not inhibit"}, {"measurement": "inhibition of CYP450 3A4", "setting": "CYP450 3A4", "value": "does not inhibit"}, {"measurement": "inhibition of CYP450 2D6", "setting": "CYP450 2D6", "value": "does inhibit"}, {"measurement": "induction of CYP 1A2", "setting": "CYP 1A2", "value": "does not induce"}, {"measurement": "induction of CYP 2B6", "setting": "CYP 2B6", "value": "does not induce"}, {"measurement": "induction of CYP 3A4", "setting": "CYP 3A4", "value": "does not induce"}, {"measurement": "genotoxicity, AMES", "setting": "AMES", "value": "negative"}, {"measurement": "respiratory testing", "setting": "rats [5]", "value": "negative"}, {"measurement": "plasma concentration versus dose", "setting": "healthy volunteers [6]; single dose 10, 25, 75, 150, and 300 mg", "value": "proportional to dose"}, {"measurement": "primary adverse effects", "setting": "healthy volunteers [6]; single dose, increasing in prevalence at 75 mg and higher", "value": "nausea, dizziness, and headache"}, {"measurement": "safety", "setting": "healthy volunteers [6]; single doses up to 300 mg", "value": "safe"}, {"measurement": "half-life", "setting": "[7]", "value": "~6", "unit": "h"}, {"measurement": "effects on vital signs or on QTc", "setting": "healthy volunteers [8]", "value": "no effects"}, {"measurement": "primary adverse events", "setting": "healthy volunteers [8]", "value": "nausea, vomiting and headache"}, {"measurement": "plasma concentration versus dose", "setting": "healthy volunteers [8]; across all doses", "value": "proportional to dose"}, {"measurement": "half-life", "setting": "[9]", "value": "~7", "unit": "h"}, {"measurement": "effects on ECG or QT", "setting": "dogs", "value": "no effects"}, {"measurement": "self-administration", "setting": "rats [10]", "value": "not self-administered"}, {"measurement": "positive subjective effects in humans", "setting": "humans", "value": "does not produce positive subjective effects"}, {"measurement": "genotoxicity, mouse lymphoma chromosome aberration", "setting": "mouse lymphoma", "value": "negative"}, {"measurement": "increases in locomotor activity", "setting": "locomotor activity", "value": "does not cause increases"}]}]}
